Data on ten compounds can be found in ChEMBL document CHEMBL1201862, “PubChem BioAssay data set” (2004).

Among the test systems are HL-60; NCI/ADR-RES; RXF 393; EKVX; UO-31; PC-3; NCI-H522; SK-OV-3; HCT-15; DU-145; T47D; Hs-578T; HOP-62; NCI-H226; SN12C; MOLT-4; UACC-257; SNB-19; HT-29; HCC 2998.
Holding throughout (test): NCI-60 cell line screen, 48 h

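Compound exposure: 48 hours, 5 concentrations, 96-well plates. The concentration for 50% growth inhibition is given as GI50.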 The source made the active and inactive calls. Rule as the data show it: active = GI50 up to about 1.1 µM and inactive = higher.

Regarding `C1CSCCCSCCCSCCCSCCCSCCCSCCCSCCCSC1`, the GI50 in the assay on HL-60, in the assay on NCI/ADR-RES, in the assay with RXF 393, with EKVX, in the assay on UO-31 and with PC-3 was > 100 µM (inactive) in each case. Besides, the GI50 with NCI-H522 was > 100 µM (inactive); in the assay with SK-OV-3, > 100 µM (inactive); in the assay with HCT-15, above 100 µM; in the assay on DU-145 it was > 100 µM (inactive); in the assay with T47D, > 100 µM (inactive); with Hs-578T, > 100 µM (inactive). The GI50 was > 100 µM (inactive) in the assay on HOP-62; 82.2 µM (inactive) with NCI-H226; > 100 µM (inactive) with SN12C; > 100 µM (inactive) in the assay on MOLT-4; > 100 µM (inactive) with UACC-257; > 100 µM (inactive) in the assay on SNB-19. In addition, the GI50 with HT-29 and in the assay with HCC 2998 was > 100 µM (inactive) each time.

With `Cc1cc(O)c2c(c1)C(=O)C(c1c(C)cc3c(c1O)C(=O)C1OC1C3=O)=CC2=O` (stereo not given), the GI50 is 0.0175 µM (active) in the assay with HL-60; 2.77 µM (inactive) in the assay on NCI/ADR-RES; 1.35 µM (inactive) with RXF 393; 3.15 µM (inactive) with EKVX; 1.8 µM (inactive) in the assay with UO-31; 12.5 µM (inactive) with PC-3. Moreover, the GI50 in the assay on NCI-H522 is 0.469 µM (active); in the assay on SK-OV-3, 17.7 µM (inactive); with HCT-15, 1.16 µM; in the assay with DU-145 it was 6.7 µM (inactive); in the assay on T47D, 1.98 µM (inactive); with Hs-578T, 4.16 µM (inactive). In addition, the GI50 is 13.1 µM (inactive) with HOP-62; 16.1 µM (inactive) in the assay on NCI-H226; 3.44 µM (inactive) in the assay with SN12C; 0.147 µM (active) with MOLT-4; 4.74 µM (inactive) with UACC-257; 21.5 µM (inactive) with SNB-19. In addition, the GI50 was 3.36 µM (inactive) with HT-29 and 5.93 µM (inactive) with HCC 2998.

For `CC(=O)C(O)N1C(=O)C=CC1=O` (stereo not given), the GI50 was 1.74 µM (inactive) in the assay on HL-60; 13.2 µM (inactive) in the assay on NCI/ADR-RES; 2.13 µM (inactive) with RXF 393; 6.5 µM (inactive) with EKVX; 5.86 µM (inactive) in the assay with UO-31; 6.11 µM (inactive) in the assay with PC-3. In addition, the GI50 was 1 µM (active) in the assay with NCI-H522; 25.2 µM (inactive) in the assay on SK-OV-3; 1.84 µM in the assay on HCT-15; 12.8 µM (inactive) with DU-145; > 25 µM (inactive) in the assay with T47D; 7.38 µM (inactive) in the assay with Hs-578T. Moreover, the GI50 was 19.5 µM (inactive) in the assay with HOP-62; 12.9 µM (inactive) in the assay on NCI-H226; 2.83 µM (inactive) in the assay with SN12C; 2.05 µM (inactive) in the assay on MOLT-4; 6 µM (inactive) in the assay on UACC-257; 17.6 µM (inactive) with SNB-19. Further, the GI50 is 16.4 µM (inactive) in the assay with HT-29 and 21 µM (inactive) in the assay on HCC 2998.

Take `COc1cccc(-c2cc(=O)c3ccccc3o2)c1N`: the GI50 was 6.76 µM (inactive) in the assay on HL-60; 33 µM (inactive) in the assay on NCI/ADR-RES; 45 µM (inactive) in the assay with RXF 393; 16.2 µM (inactive) with EKVX; 36.3 µM (inactive) with UO-31; > 23.6 µM (inactive) in the assay on PC-3. The GI50 in the assay with NCI-H522 was 27.9 µM (inactive); in the assay with SK-OV-3 it was 15 µM (inactive); with HCT-15, above 100 µM; in the assay on DU-145, > 100 µM (inactive); in the assay with T47D, 11.9 µM (inactive); in the assay on Hs-578T, 71.9 µM (inactive). Besides, the GI50 in the assay on HOP-62 was 18.3 µM (inactive); with NCI-H226, 63 µM (inactive); in the assay with SN12C, > 100 µM (inactive); in the assay with MOLT-4, > 100 µM (inactive); with UACC-257 it was 36.6 µM (inactive); in the assay with SNB-19, 51.9 µM (inactive). The GI50 in the assay on HT-29 was 12.8 µM (inactive); in the assay with HCC 2998, 28.2 µM (inactive).

Turning to `O=C1N/C(=N/N=C\C(O)C(O)C(O)C(O)CO)N/C1=C\c1ccc(Cl)cc1` (stereo not given), the GI50 in the assay on HL-60 was 25.3 µM (inactive); in the assay with NCI/ADR-RES, > 100 µM (inactive); in the assay on RXF 393 it was 7.19 µM (inactive); in the assay on EKVX it was 12.1 µM (inactive); in the assay with UO-31, 44.1 µM (inactive); in the assay with PC-3 it was 5.52 µM (inactive). For the same compound, the GI50 is 2.75 µM (inactive) in the assay with NCI-H522; 16.6 µM (inactive) with SK-OV-3; above 86.5 µM with HCT-15; 15.2 µM (inactive) in the assay on DU-145; 3.25 µM (inactive) in the assay on T47D; 2.48 µM (inactive) in the assay on Hs-578T. For the same compound, the GI50 in the assay with HOP-62 was 2.72 µM (inactive); in the assay on NCI-H226 it was 3 µM (inactive); in the assay on SN12C, 1.51 µM (inactive); in the assay on MOLT-4, 3.9 µM (inactive); in the assay on UACC-257, 14.5 µM (inactive); in the assay with SNB-19, 2.73 µM (inactive). The GI50 is 17.4 µM (inactive) in the assay on HT-29 and 12.4 µM (inactive) in the assay with HCC 2998.

Turning to `C#CCSc1cnc2ccccc2c1Sc1c[nH]c2ccccc2c1=O`, the GI50 in the assay on HL-60 is 16.6 µM (inactive); in the assay with NCI/ADR-RES it was 33 µM (inactive); with RXF 393, 13.6 µM (inactive); with EKVX, 19.1 µM (inactive); in the assay with UO-31 it was 2.14 µM (inactive); in the assay on PC-3 it was 17.6 µM (inactive). Moreover, the GI50 in the assay with NCI-H522 was 6.58 µM (inactive); with SK-OV-3 it was 30.3 µM (inactive); in the assay with HCT-15, 16.1 µM; in the assay on DU-145, 51.3 µM (inactive); in the assay on T47D, 10.9 µM (inactive); in the assay on Hs-578T, 48.2 µM (inactive). Moreover, the GI50 in the assay with HOP-62 is 26.5 µM (inactive); in the assay on NCI-H226, 21 µM (inactive); in the assay with SN12C, 12.8 µM (inactive); in the assay on MOLT-4, 4.53 µM (inactive); with UACC-257 it was 17.6 µM (inactive); in the assay with SNB-19, 16.1 µM (inactive). For the same compound, the GI50 was 21.2 µM (inactive) with HT-29 and 17.9 µM (inactive) in the assay on HCC 2998.

As for `C=C1C(=O)OC2/C=C(\CO)C3OC3C3OC3(C)CC(OC(=O)/C(=C/C)COC(C)=O)C12` (stereo not given), the GI50 in the assay on HL-60 is 1.39 µM (inactive); in the assay with NCI/ADR-RES, 12.1 µM (inactive); in the assay with RXF 393, 1.71 µM (inactive); in the assay with EKVX, 3.81 µM (inactive); in the assay with UO-31 it was 10.6 µM (inactive); in the assay on PC-3, 14 µM (inactive). The GI50 in the assay on NCI-H522 is 0.313 µM (active); in the assay on SK-OV-3 it was 18.2 µM (inactive); in the assay with HCT-15 it was 2.12 µM; in the assay with DU-145 it was 17.1 µM (inactive); with T47D, 3.01 µM (inactive); in the assay with Hs-578T it was 3.7 µM (inactive). Besides, the GI50 in the assay on HOP-62 was 21.6 µM (inactive); with NCI-H226, 21.6 µM (inactive); in the assay on SN12C, 3.2 µM (inactive); in the assay on MOLT-4, 7.89 µM (inactive); in the assay with UACC-257, 3.84 µM (inactive); with SNB-19, 15.1 µM (inactive). In addition, the GI50 was 3.89 µM (inactive) in the assay on HT-29 and 16.5 µM (inactive) with HCC 2998.

With `S=c1sc2nc(Cl)nc(Cl)c2s1`, the GI50 in the assay on HL-60 was 0.442 µM (active); with NCI/ADR-RES it was 11 µM (inactive); in the assay with RXF 393 it was 12 µM (inactive); in the assay with EKVX, 16.9 µM (inactive); in the assay on UO-31, 11.1 µM (inactive); in the assay with PC-3, 12.4 µM (inactive). The GI50 is 6.84 µM (inactive) with NCI-H522; 17.7 µM (inactive) in the assay with SK-OV-3; 13.2 µM in the assay on HCT-15; 16 µM (inactive) with DU-145; 7.06 µM (inactive) in the assay on T47D; 24 µM (inactive) in the assay with Hs-578T. Moreover, the GI50 in the assay on HOP-62 was 19.9 µM (inactive); in the assay with NCI-H226, 17.5 µM (inactive); in the assay on SN12C, 14.5 µM (inactive); with MOLT-4, 0.822 µM (active); with UACC-257, 15.3 µM (inactive); in the assay with SNB-19 it was 17.9 µM (inactive). Besides, the GI50 in the assay with HT-29 was 8.24 µM (inactive); in the assay on HCC 2998, 15.3 µM (inactive).

In the case of `C[n+]1c(Cl)cn2c3nc4ccccc4nc3c([O-])c(C#N)c21`, the GI50 with HL-60, in the assay on NCI/ADR-RES, in the assay with RXF 393, in the assay on EKVX, in the assay on UO-31 and with PC-3 was > 100 µM (inactive) each time. In addition, the GI50 with NCI-H522 was > 10 µM (inactive); in the assay on SK-OV-3 it was > 100 µM (inactive); in the assay with HCT-15, above 10 µM; in the assay on DU-145, > 100 µM (inactive); in the assay on T47D it was 41.7 µM (inactive); with Hs-578T, > 100 µM (inactive). In addition, the GI50 was > 10 µM (inactive) in the assay with HOP-62; > 100 µM (inactive) in the assay on NCI-H226; > 100 µM (inactive) in the assay with SN12C; > 100 µM (inactive) with MOLT-4; > 100 µM (inactive) with UACC-257; > 100 µM (inactive) in the assay with SNB-19. Further, the GI50 in the assay with HT-29 was > 100 µM (inactive); in the assay with HCC 2998 it was > 10 µM (inactive).

In the case of `COc1ccc(N2C(=O)C(C)SC2c2cc3cc(Br)ccc3nc2Cl)cc1` (stereo not given), the GI50 is 24.8 µM (inactive) in the assay with HL-60; 24.3 µM (inactive) in the assay on NCI/ADR-RES; 28.8 µM (inactive) in the assay with RXF 393; 21.6 µM (inactive) in the assay with EKVX; 33.6 µM (inactive) in the assay on UO-31; 25.4 µM (inactive) in the assay with PC-3. Moreover, the GI50 is 21.3 µM (inactive) in the assay on NCI-H522; 59.8 µM (inactive) with SK-OV-3; 32.9 µM in the assay with HCT-15; 57.3 µM (inactive) with DU-145; 34.3 µM (inactive) in the assay on T47D; 38.5 µM (inactive) in the assay on Hs-578T. Moreover, the GI50 is 36.2 µM (inactive) with HOP-62; 55.3 µM (inactive) in the assay on NCI-H226; 35.2 µM (inactive) in the assay with SN12C; 20.9 µM (inactive) in the assay on MOLT-4; 30.7 µM (inactive) with UACC-257; 25.6 µM (inactive) in the assay with SNB-19. In addition, the GI50 is 32.4 µM (inactive) in the assay on HT-29 and 33.3 µM (inactive) in the assay with HCC 2998.
